Common to all, as to type: in vivo, mouse
Series [1] is described as follows: Example 11 HFD mice: weight change, dietary efficiency and organ weight. The note with it: oral once daily 10 weeks, 50 mg/kg. As to the method:
(§1) After adapting 8-week-old male C57b1/6 J mice to the basic diet (AIN-76A diet) for 2 weeks, and consuming Diet Induced Obesity Diet Formulas (D12451) 60 kcal % HFD diet for 2 weeks from 10 weeks of age, and then the test drug was administered when the average body weight reached 28 g or more. The animal breeding room environment of the mouse was maintained in a constant temperature (25±2° C.), constant humidity (50±5%) and a 12-hour photoperiod (light on 07:00˜19:00) in which the light and shade were controlled in an SPF environment. […] The test drug was dispersed in 0.5% Carboxymethyl cellulose (CMC) and administered in a volume of 0.2 ml, and the drug was administered orally by force into the stomach using a metal Zonde for oral administration.
Body weight and food intake were measured and recorded at regular times every week. Total weight gain: weight at the end of the experiment−weight at the start of the experiment (1) Food intake=[…] (2) Food efficiency ratio (FER)=[total weight gain/total food intake]×100 (3)
The data were analyzed using one-way ANOVA to determine a statistically significant variance between each group for each final point measured, and statistical significance between each group was determined using the nonparametric Mann-Whitney test and Dunnett's multiple comparison test (IBM SPSS statistics version 19.0 statistic software, Inc, IBM, USA).

A short description of series [2]: Example 12 HFD mice: oral glucose tolerance test. To be noted: oral once daily 10 weeks, 50 mg/kg. The procedure:
as §1
(§2) […] Blood to be used for blood glucose measurement was collected from the tail vein of a mouse, and blood glucose was measured using a serum analyzer (Accutrend plus GCTL Cobas Roche, Germany).
(§3) Results obtained from various experiments are recorded as mean±standard error of mean (SEM), and significance verification is determined using the student's T-test analysis method. The data were analyzed using one-way ANOVA to determine a statistically significant variance between each group for each final point measured, and statistical significance between each group was determined using the nonparametric Mann-Whitney test and Dunnett's multiple comparison test (IBM SPSS statistics version 19.0 statistic software, Inc, IBM, USA).

A further series concerns PPAR-gamma mRNA. Kind of series: Example 12 HFD mice: adipose tissue PPAR-gamma mRNA analysis. The note with it: adipose tissue of HFD mice, oral once daily for 10 weeks, chiisanogenin 50 mg/kg, Garcinia cambogia extract 200 mg/kg, combination 50 + 150 mg/kg, Met 50 mg/kg. As to the method: The test drug was dispersed in 0.5% Carboxymethyl cellulose (CMC) and administered in a volume of 0.2 ml, and the drug was administered orally by force into the stomach using a metal Zonde for oral administration. RNA was extracted from tissues using RNAsolB (Tel-Test) solution, and cDNA and real-time PCR analysis were performed using One-step SYBR Green PCR kit (AB science). From the prepared cDNA, a FAM probe of [NT] ID NO: 16) sequence was used to amplify PPAR-gamma mRNA, and a VIC probe of [NT] ID NO: 15) sequence was used to amplify GAPDH mRNA as an intra control. Real time quantitative PCR was performed using the Applied Biosystems 7500 Real-Time PCR system (Applied Biosystems, USA). Results obtained from various experiments are recorded as mean±standard error of mean (SEM), and significance verification is determined using the student's T-test analysis method. The data were analyzed using one-way ANOVA to determine a statistically significant variance between each group for each final point measured, and statistical significance between each group was determined using the nonparametric Mann-Whitney test and Dunnett's multiple comparison test (IBM SPSS statistics version 19.0 statistic software, Inc, IBM, USA).

The next series deals with C/EBP-α mRNA. Kind of series: Example 11 HFD mice: adipose tissue C/EBP-α mRNA analysis. The note with it: oral once daily 10 weeks, 50 mg/kg. The procedure: (§4) After adapting 8-week-old male C57b1/6 J mice to the basic diet (AIN-76A diet) for 2 weeks, and consuming Diet Induced Obesity Diet Formulas (D12451) 60 kcal % HFD diet for 2 weeks from 10 weeks of age, and then the test drug was administered when the average body weight reached 28 g or more. The animal breeding room environment of the mouse was maintained in a constant temperature (25±2° C.), constant humidity (50±5%) and a 12-hour photoperiod (light on 07:00˜19:00) in which the light and shade were controlled in an SPF environment. […]
RNA was extracted from tissues using RNAsolB (Tel-Test) solution, and cDNA and real-time PCR analysis were performed using One-step SYBR Green PCR kit (AB science). […] Real time quantitative PCR was performed using the Applied Biosystems 7500 Real-Time PCR system (Applied Biosystems, USA).
as §3

A short description of series [3]: Example 11 HFD mice: oral glucose tolerance test. To be noted: oral once daily 10 weeks, 50 mg/kg. The procedure:
as §4, §2, §3

Series [4] is described as follows: Example 11 HFD mice: body fat reduction, white adipose tissue weight. To be noted: oral once daily 10 weeks, 50 mg/kg. As to the method:
as §1
After removing retroperitoneal white adipose tissue and intestines white adipose tissue of each experimental animal, the weight of adipose tissue was calculated.
as §3

This note sets out measurements from patent US12390505B2, “Composition for preventing or treating obesity or diabetes, comprising acanthopanax senticosus extract and garcinia cambogia extract or compound isolated therefrom” (KOREA RESEARCH INSTITUTE OF BIOSCIENCE AND BIOTECHNOLOGY, priority 2020, dated 2025).

For the compound `CN(C)C(=N)N=C(N)N` [Met, Metformin], in series [1], the Final weight is listed as 38.6 ± 0.93 g, the “Food intakes” value was 2.24 g/day, the “Inhibition Rate (FER)” value worked out at 41% and the “Inhibition Rate (final weight)” value is on record as 43%. In series [1], the “Inhibition Rate (weight gain)” value came to 51%, the Kidney weight is reported as 0.31 ± 0.01 g, the Spleen weight is 0.10 ± 0.00 g and the Weight gain came to 15.3 ± 0.82 g. Further, the “Inhibition Rate (OGTT)” value in series [2] is 23%. In series [2] (glucose 1 g/kg), the “OGTT (30 min-0 min, mg/dL)” value is 148.0 ± 18.50^ mg/dL. Further, in the series with PPAR-gamma mRNA, the “PPAR-γ mRNA Inhibition Rate (%)” value is given as 80%. In the series on PPAR-gamma mRNA (real-time PCR vs GAPDH), the “PPAR-γ mRNA, mean ± standard error” value worked out at 1.235 ± 0.42. In the series with C/EBP-α mRNA, the “Inhibition Rate (C/EBP-α mRNA)” value amounted to 75%. Moreover, the “C/EBP-α mRNA expression in adipose tissue” value in the series with C/EBP-α mRNA (GAPDH control) was found to be 1.153 ± 0.320. In addition, the “Inhibition Rate (OGTT)” value in series [3] was 23%. Moreover, in series [3] (glucose 1 g/kg), the “OGTT (30 min-0 min, mg/dL)” value is 148 ± 18.50^ mg/dL. In series [4], the “Inhibition Rate (intestines WAT)” value is on record as 46%, the “Inhibition Rate (retroperitoneal white adipose tissue)” value was 12%, the “Intestines WAT” value is recorded as 0.55 ± 0.05 g and the “Retroperitoneal white adipose tissue” value is recorded as 0.89 ± 0.06 g.
